Results published in ChEMBL document CHEMBL1155650, “New oleanene triterpenoid saponins from Madhuca longifolia” (J Nat Prod, 2000).
Calls of active or inactive are those of the source. The rule behind the calls is not given here.

species: Homo sapiens; test: Cytotoxicity against human Kato 3 cells; type: functional, cell-based

Structure (SMILES) | Activity
C[C@@H]1O[C@@H](O[C@H]2[C@H](OC(=O)[C@]34CCC(C)(C)C[C@H]3C3=CC[C@@H]5[C@@]6(C)C[C@H](O)[C@H](O)[C@@](C)(CO)[C@@H]6[C@H](O)C[C@@]5(C)[C@]3(C)CC4)OC[C@H](O)[C@@H]2O)[C@H](O)[C@H](O)[C@H]1O | inactive
CC1(C)CC[C@]2(C(=O)O[C@@H]3OC[C@H](O)[C@H](O)[C@H]3O)CC[C@]3(C)C(=CC[C@@H]4[C@@]5(C)CC(=O)[C@H](O)[C@@](C)(CO)[C@@H]5[C@H](O)C[C@]43C)[C@@H]2C1 | inactive
CC1(C)CC[C@]2(C(=O)O[C@@H]3OC[C@H](O)[C@H](O)[C@H]3O)CC[C@]3(C)C(=CC[C@@H]4[C@@]5(C)CC(=O)[C@H](O[C@@H]6O[C@H](CO)[C@@H](O)[C@H](O)[C@H]6O)[C@@](C)(CO)[C@@H]5[C@H](O)C[C@]43C)[C@@H]2C1 | inactive
CC1(C)CC[C@]2(C(=O)O[C@@H]3OC[C@H](O)[C@H](O)[C@H]3O)CC[C@]3(C)C(=CC[C@@H]4[C@@]5(C)C[C@H](O)[C@H](O)[C@@](C)(CO)[C@@H]5[C@H](O)C[C@]43C)[C@@H]2C1 | inactive
